Laboratory results from ChEMBL document CHEMBL2331321, “Design, synthesis, and biological evaluation of 3-aryl-3-hydroxy-1-phenylpyrrolidine derivatives as novel androgen receptor antagonists” (Bioorg Med Chem, 2013).

Key:
Androgen receptor [1] = target: T1, Androgen receptor (Homo sapiens, UniProt P10275, T878A)
Description: Antagonist activity at Androgen receptor T877A mutant (unknown origin) expressed in human Cos-7 cells co-expressing pGL3-MMTV-luc vector assessed as luciferase activity by reporter gene assay

Androgen receptor [2] = target: T2, Androgen receptor (Homo sapiens, UniProt P10275)
T2 sequence (P10275 whole entry): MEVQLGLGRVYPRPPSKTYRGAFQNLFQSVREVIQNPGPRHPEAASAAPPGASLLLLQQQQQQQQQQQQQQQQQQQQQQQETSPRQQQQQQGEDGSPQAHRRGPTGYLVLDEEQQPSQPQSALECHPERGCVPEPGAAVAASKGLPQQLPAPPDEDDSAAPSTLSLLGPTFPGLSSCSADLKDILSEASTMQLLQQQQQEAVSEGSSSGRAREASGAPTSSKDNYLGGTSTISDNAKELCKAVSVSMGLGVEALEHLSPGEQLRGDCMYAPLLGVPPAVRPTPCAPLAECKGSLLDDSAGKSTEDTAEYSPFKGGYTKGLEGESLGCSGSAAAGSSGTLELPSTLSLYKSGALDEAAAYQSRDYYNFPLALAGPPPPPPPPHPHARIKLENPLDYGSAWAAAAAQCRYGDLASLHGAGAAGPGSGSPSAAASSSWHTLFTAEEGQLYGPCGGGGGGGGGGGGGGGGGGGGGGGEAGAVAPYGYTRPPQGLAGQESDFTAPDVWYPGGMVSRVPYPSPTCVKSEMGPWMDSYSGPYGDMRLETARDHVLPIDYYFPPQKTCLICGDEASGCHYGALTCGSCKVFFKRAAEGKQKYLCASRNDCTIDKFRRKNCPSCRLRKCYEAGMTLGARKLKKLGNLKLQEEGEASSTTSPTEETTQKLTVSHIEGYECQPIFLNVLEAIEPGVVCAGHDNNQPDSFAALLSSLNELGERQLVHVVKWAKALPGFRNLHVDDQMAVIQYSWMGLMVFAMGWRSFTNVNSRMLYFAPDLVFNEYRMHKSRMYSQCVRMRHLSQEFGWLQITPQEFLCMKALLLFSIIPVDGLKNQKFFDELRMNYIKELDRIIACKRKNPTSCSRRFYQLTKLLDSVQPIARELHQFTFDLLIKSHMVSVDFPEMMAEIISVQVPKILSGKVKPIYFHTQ
Description: Inhibition of wild type Androgen receptor (unknown origin) expressed in Freestyle293F cells

Androgen receptor [3] = target: T2, Androgen receptor; remark: listed apart in the source
Description: Agonist activity at wild type Androgen receptor in human LNCaP-hr cells assessed as prostate specific antigen secretion measured after 3 days by enzyme-immunoassay

Androgen receptor [4] = target: T2, Androgen receptor; remark: listed apart in the source
Description: Antagonist activity at wild type Androgen receptor (unknown origin) expressed in human Cos-7 cells co-expressing pGL3-MMTV-luc vector assessed as luciferase activity by reporter gene assay

Androgen receptor [5] = target: T1, Androgen receptor; remark: listed apart in the source
Description: Inhibition of Androgen receptor T877A mutant (unknown origin) expressed in Freestyle293F cells

Androgen receptor [6] = target: T1, Androgen receptor; remark: listed apart in the source
Description: Agonist activity at Androgen receptor T877A mutant in human LNCaP-hr cells assessed as prostate specific antigen secretion measured after 3 days by enzyme-immunoassay

[7] = Antitumor activity against human LNCaP-hr cells in BALB/c mouse xenograft model assessed as inhibition of tumor growth at 10 mg/kg, po bid for 28 days (reference value: 100%); assay type: functional
[8] = Mean residence time in mouse at 30 mg/kg, po; assay type: ADME, organism-based; design: dose 30 mg/kg, route oral; conditions: in vivo
[9] = Antitumor activity against human LNCaP-hr cells in BALB/c mouse xenograft model assessed as plasma prostate specific antigen level at 30 mg/kg, po bid for 28 days by ELISA (reference value: 23.8 +/- 6.1 ng/ml); assay type: functional
[10] = Antitumor activity against human LNCaP-hr cells in BALB/c mouse xenograft model assessed as plasma prostate specific antigen level at 10 mg/kg, po bid for 28 days by ELISA (reference value: 23.8 +/- 6.1 ng/ml); assay type: functional
[11] = Antitumor activity against human LNCaP-hr cells in BALB/c mouse xenograft model assessed as inhibition of tumor growth at 30 mg/kg, po bid for 28 days (reference value: 100%); assay type: functional
[12] = AUC in mouse at 30 mg/kg, po; assay type: ADME, organism-based; design: dose 30 mg/kg, route oral; conditions: plasma
[13] = Half life in mouse plasma; assay type: ADME, cell-free
[14] = Antitumor activity against human LNCaP-hr cells in BALB/c mouse xenograft model assessed as inhibition of tumor growth at 100 mg/kg, po qd for 28 days (reference value: 100%); assay type: functional
[15] = Antitumor activity against human LNCaP-hr cells in BALB/c mouse xenograft model assessed as plasma prostate specific antigen level at 100 mg/kg, po qd for 28 days by ELISA (reference value: 23.8 +/- 6.1 ng/ml); assay type: functional

T1 sequence (P10275 whole entry T878A): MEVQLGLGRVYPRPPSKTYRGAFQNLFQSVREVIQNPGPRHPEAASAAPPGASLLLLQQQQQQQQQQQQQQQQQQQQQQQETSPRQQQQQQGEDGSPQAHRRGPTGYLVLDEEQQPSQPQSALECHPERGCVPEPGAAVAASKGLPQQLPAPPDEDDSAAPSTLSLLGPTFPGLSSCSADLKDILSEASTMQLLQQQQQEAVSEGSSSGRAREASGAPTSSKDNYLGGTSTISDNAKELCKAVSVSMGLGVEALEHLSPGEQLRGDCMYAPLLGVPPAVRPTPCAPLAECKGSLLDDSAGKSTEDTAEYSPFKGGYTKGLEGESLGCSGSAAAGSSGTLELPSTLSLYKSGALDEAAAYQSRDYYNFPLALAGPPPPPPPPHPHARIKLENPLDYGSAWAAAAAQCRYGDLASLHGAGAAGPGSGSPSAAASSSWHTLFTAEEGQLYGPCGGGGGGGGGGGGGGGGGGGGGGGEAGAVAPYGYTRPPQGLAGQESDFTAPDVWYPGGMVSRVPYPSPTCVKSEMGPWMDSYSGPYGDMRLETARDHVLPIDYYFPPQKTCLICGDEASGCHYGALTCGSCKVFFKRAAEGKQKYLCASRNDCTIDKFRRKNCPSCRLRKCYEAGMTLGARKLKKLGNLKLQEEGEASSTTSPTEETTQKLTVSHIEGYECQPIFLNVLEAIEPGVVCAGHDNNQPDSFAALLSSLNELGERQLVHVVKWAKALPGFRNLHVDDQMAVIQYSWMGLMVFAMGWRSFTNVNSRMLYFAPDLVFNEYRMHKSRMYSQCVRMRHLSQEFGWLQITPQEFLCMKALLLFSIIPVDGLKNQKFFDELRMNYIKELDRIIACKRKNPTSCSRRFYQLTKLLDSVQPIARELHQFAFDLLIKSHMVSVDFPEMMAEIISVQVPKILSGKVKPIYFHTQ

With N#Cc1ccc(N2CCC(O)(Cc3ccccc3)C2)cc1Cl (configuration not stated) the IC50 (Androgen receptor [1]) was 450 nM, the IC50 (Androgen receptor [2]) was 420 nM and the EC50 (Androgen receptor [3]) was over 10000 nM. For the same compound, the IC50 (Androgen receptor [4]) was 1000 nM, the IC50 (Androgen receptor [5]) was 59 nM and the EC50 (Androgen receptor [6]) was 4800 nM.
With N#Cc1ccc(N2CCC(O)C2)cc1Cl (configuration not stated) the IC50 (Androgen receptor [1]) was over 10000 nM, the IC50 (Androgen receptor [2]) was 120 nM and the EC50 (Androgen receptor [3]) was 4700 nM. For the same compound, the IC50 (Androgen receptor [4]) was 82 nM, the IC50 (Androgen receptor [5]) was 30 nM and the EC50 (Androgen receptor [6]) was 640 nM.
With C[C@@H]1N(c2ccc(C#N)c(Cl)c2)CC[C@@]1(O)c1ccc(F)cc1 the IC50 (Androgen receptor [1]) was over 10000 nM, the IC50 (Androgen receptor [2]) was 8 nM and the EC50 (Androgen receptor [3]) was over 10000 nM. For the same compound, the IC50 (Androgen receptor [4]) was 17 nM, the IC50 (Androgen receptor [5]) was 8.1 nM and the EC50 (Androgen receptor [6]) was 20 nM.
For C[C@@H]1N(c2ccc(C#N)c(Cl)c2)CC[C@@]1(O)c1ccc(C(N)=O)cc1, the IC50 (Androgen receptor [1]) was 9 nM, the IC50 (Androgen receptor [2]) was 27 nM and the EC50 (Androgen receptor [3]) was over 10000 nM. The IC50 (Androgen receptor [4]) was 17 nM, the IC50 (Androgen receptor [5]) was 42 nM and the EC50 (Androgen receptor [6]) was 10000 nM.
With CNC(=O)c1ccc([C@]2(O)CCN(c3ccc(C#N)c(Cl)c3)[C@H]2C)cc1 the IC50 (Androgen receptor [1]) was 10 nM, the IC50 (Androgen receptor [2]) was 32 nM and the EC50 (Androgen receptor [3]) was over 10000 nM. The IC50 (Androgen receptor [4]) was 8.6 nM, the IC50 (Androgen receptor [5]) was 18 nM and the EC50 (Androgen receptor [6]) was 10000 nM.
CNC(=O)c1ccc([C@]2(O)CCN(c3ccc(C#N)c(Cl)c3)[C@H]2C)nc1 gave an IC50 (Androgen receptor [1]) of 100 nM, an IC50 (Androgen receptor [2]) of 68 nM and an EC50 (Androgen receptor [3]) of over 10000 nM. For the same compound, the IC50 (Androgen receptor [4]) was 120 nM, the IC50 (Androgen receptor [5]) was 16 nM and the EC50 (Androgen receptor [6]) was 5100 nM.
In the case of CNC(=O)c1ccc([C@]2(O)CCN(c3ccc(C#N)c(Cl)c3)[C@H]2C)cn1, the IC50 (Androgen receptor [1]) is reported as 99 nM, the IC50 (Androgen receptor [2]) is reported as 44 nM and the EC50 (Androgen receptor [3]) is reported as over 10000 nM. It also gave an IC50 (Androgen receptor [4]) of 25 nM, an IC50 (Androgen receptor [5]) of 100 nM and an EC50 (Androgen receptor [6]) of over 10000 nM.
C[C@@H]1N(c2ccc(C#N)c(Cl)c2)CC[C@@]1(O)c1ccc(C(=O)N(C)C)nc1 gave an IC50 (Androgen receptor [1]) of 10000 nM, an IC50 (Androgen receptor [2]) of 1100 nM and an EC50 (Androgen receptor [3]) of over 10000 nM. The IC50 (Androgen receptor [4]) was 1700 nM, the IC50 (Androgen receptor [5]) was 3000 nM and the EC50 (Androgen receptor [6]) was over 10000 nM.
CNC(=O)c1ccc([C@@]2(O)CCN(c3ccc(C#N)c(Cl)c3)[C@@H]2C)cn1 showed an IC50 (Androgen receptor [1]) of 1600 nM, an IC50 (Androgen receptor [2]) of 1600 nM and an EC50 (Androgen receptor [3]) of over 10000 nM. The IC50 (Androgen receptor [4]) was 6400 nM, the IC50 (Androgen receptor [5]) was 97 nM and the EC50 (Androgen receptor [6]) was over 10000 nM.
C[C@@H]1N(c2ccc(C#N)c(Cl)c2)CC[C@@]1(O)c1ccc(N2CCCC2=O)nc1 showed an IC50 (Androgen receptor [1]) of 160 nM, an IC50 (Androgen receptor [2]) of 13 nM and an IC50 (Androgen receptor [4]) of 11 nM. The IC50 (Androgen receptor [5]) was 87 nM.
CNC(=O)c1ccc([C@]2(O)CCN(c3ccc(C#N)c(OC)c3)[C@H]2C)cn1 gave an IC50 (Androgen receptor [1]) of 730 nM, an IC50 (Androgen receptor [2]) of 120 nM and an IC50 (Androgen receptor [4]) of 62 nM. It also gave an IC50 (Androgen receptor [5]) of 240 nM.
With CNC(=O)c1ccc([C@]2(O)CCN(c3ccc(C#N)cc3)[C@H]2C)cn1 the IC50 (Androgen receptor [1]) was 1400 nM, the IC50 (Androgen receptor [2]) was 7600 nM and the IC50 (Androgen receptor [4]) was 400 nM. It also gave an IC50 (Androgen receptor [5]) of 5300 nM.
Work on CNC(=O)c1ccc([C@]2(O)CCN(c3ccc(C#N)c(F)c3)[C@H]2C)cn1 yielded a T/C [7] of 139%, an MRT [8] of 4.07 h and an Activity [9] of 4.3 ng/mL. For the same compound, the IC50 (Androgen receptor [1]) was 1700 nM, the IC50 (Androgen receptor [2]) was 830 nM and the IC50 (Androgen receptor [4]) was 290 nM. For the same compound, the IC50 (Androgen receptor [5]) was 1700 nM, the Activity [10] was 33 ng/mL and the T/C [11] was 18%. For the same compound, the AUC [12] was 232 µg·h/mL.
For N#Cc1ccc(N2CCC(O)(c3ccccc3)C2)cc1Cl (racemic), the IC50 (Androgen receptor [1]) was 250 nM, the IC50 (Androgen receptor [2]) was 370 nM and the EC50 (Androgen receptor [3]) was over 10000 nM. It also gave an IC50 (Androgen receptor [4]) of 380 nM, an IC50 (Androgen receptor [5]) of 130 nM and an EC50 (Androgen receptor [6]) of over 10000 nM.
Work on N#Cc1ccc(N2CCC(O)(c3ccc(F)cc3)C2)cc1Cl (racemic) yielded an IC50 (Androgen receptor [1]) of 65 nM, an IC50 (Androgen receptor [2]) of 180 nM and an EC50 (Androgen receptor [3]) of over 10000 nM. For the same compound, the IC50 (Androgen receptor [4]) was 68 nM, the IC50 (Androgen receptor [5]) was 36 nM and the EC50 (Androgen receptor [6]) was over 10000 nM.
With C[C@](O)(CS(=O)(=O)c1ccc(F)cc1)C(=O)Nc1ccc(C#N)c(C(F)(F)F)c1 [(R)-BICALUTAMIDE] the half-life [13] was 101 h.
C[C@@](O)(CS(=O)(=O)c1ccc(F)cc1)C(=O)Nc1ccc(C#N)c(C(F)(F)F)c1 [(S)-BICALUTAMIDE] gave a half-life [13] of 19 h.
CC(O)(CS(=O)(=O)c1ccc(F)cc1)C(=O)Nc1ccc(C#N)c(C(F)(F)F)c1 (configuration not stated) [BICALUTAMIDE] showed a T/C [14] of 191% and an Activity [15] of 45.6 ng/mL.
